Experimental data published in patent US4919932A, “Pharmaceutical formulation for the treatment of bacterial infections” (priority 1986, dated 1990).
In brackets after ≈: the same amount, converted by molar mass. Where two headings read alike, the source gives them in different places.

How the values were obtained:
Staph. SG 511 = assay: MIC against Staph. SG 511; type: cell-based
Staph. 285 = assay: MIC against Staph. 285; type: cell-based
Staph. 503 = assay: MIC against Staph. 503; type: cell-based
Kl. aerog. 1082E = assay: MIC against Kl. aerog. 1082E; type: cell-based
Citrob. 82 Cull. = assay: MIC against Citrob. 82 Cull.; type: cell-based
Staph. 789 = assay: MIC against Staph. 789; type: cell-based; details: clinical isolate resistant to the cephalosporin
Staph. 22130 = assay: MIC against Staph. 22130; type: cell-based; details: clinical isolate resistant to the cephalosporin
Strept. faecium D = assay: MIC against Strept. faecium D; type: cell-based; details: Enterococcus faecium, clinical isolate resistant to the cephalosporin
Ent. cl. M 423 = assay: MIC against Ent. cl. M 423; type: cell-based; details: clinical isolate resistant to the cephalosporin
Ent. cl. P99 = assay: MIC against Ent. cl. P99; type: cell-based; details: clinical isolate resistant to the cephalosporin
B. fragilis 312 = assay: MIC against B. fragilis 312; type: cell-based; details: Bacteroides fragilis, anaerobic
B. fragilis 960 = assay: MIC against B. fragilis 960; type: cell-based; details: Bacteroides fragilis, anaerobic
B. fragilis 17390 = assay: MIC against B. fragilis 17390; type: cell-based; details: Bacteroides fragilis, anaerobic
B. fragilis 18125 = assay: MIC against B. fragilis 18125; type: cell-based; details: Bacteroides fragilis, anaerobic
B. ovatus 103 = assay: MIC against B. ovatus 103; type: cell-based; details: Bacteroides ovatus, anaerobic
B. vulgatus 1446 = assay: MIC against B. vulgatus 1446; type: cell-based; details: Phocaeicola vulgatus, anaerobic
B. thetaiotaomicron 123 = assay: MIC against B. thetaiotaomicron 123; type: cell-based; details: Bacteroides thetaiotaomicron, anaerobic
Sph. varius 5262 = assay: MIC against Sph. varius 5262; type: cell-based; details: Fusobacterium varium, anaerobic
Cl. tetani 19406 = assay: microbe, parasite or virus in culture; type: cell-based; details: Clostridium tetani
Strept. D 21777 = assay: MIC against Strept. D 21777; type: cell-based
Strept. D 26777 = assay: MIC against Strept. D 26777; type: cell-based
Ent. cl. 2240 Cull. = assay: MIC against Ent. cl. 2240 Cull.; type: cell-based
E. coli 2139E = assay: MIC against E. coli 2139E; type: cell-based; details: Escherichia coli
Kl. pneu. 1976E = assay: MIC against Kl. pneu. 1976E; type: cell-based
B. distasonis 1366 = assay: MIC against B. distasonis 1366; type: cell-based; details: Parabacteroides distasonis
Citrob. 2901 = assay: MIC against Citrob. 2901
Ent. cl. M. 447 = assay: MIC against Ent. cl. M. 447

Question: `CC(O)C1C(=O)N2C(C(=O)O)=C(Oc3ccc(C(N)=O)cc3)SC12` (stereo not drawn) [(1), sodium 5R,6S-6-(1R-hydroxyethyl)-3-(4-carbamoyl-phenoxy)-7-oxo-4-thia-1-azabicyclo[3.2.0]hept-2-ene-2-carboxylate] was tested. Which MIC (Staph. SG 511) did it give?
Answer: 0.062 µg/mL

Question: What about the MIC (Staph. 285) of the same compound?
Answer: 0.062 µg/mL

Question: What about the MIC (Staph. 503) of the same compound?
Answer: 0.062 µg/mL

Question: What about the MIC (Kl. aerog. 1082E) of the same compound?
Answer: 0.5 µg/mL

Question: And the MIC (Citrob. 82 Cull.)?
Answer: 1 µg/mL

Question: What about the MIC (Staph. 789) of the same compound?
Answer: 4 µg/mL

Question: What about the MIC (Staph. 22130) of the same compound?
Answer: 2 µg/mL

Question: And the MIC (Strept. faecium D)?
Answer: 8 µg/mL

Question: What about the MIC (Ent. cl. M 423) of the same compound?
Answer: 4 µg/mL

Question: What about the MIC (Ent. cl. P99) of the same compound?
Answer: 2 µg/mL

Question: And the MIC (B. fragilis 312)?
Answer: 0.125 µg/mL

Question: And the MIC (B. fragilis 960)?
Answer: 0.125 µg/mL

Question: And the MIC (B. fragilis 17390)?
Answer: 0.25 µg/mL

Question: And the MIC (B. fragilis 18125)?
Answer: 0.25 µg/mL

Question: And the MIC (B. ovatus 103)?
Answer: 0.125 µg/mL

Question: And the MIC (B. vulgatus 1446)?
Answer: 0.125 µg/mL

Question: What about the MIC (B. thetaiotaomicron 123) of the same compound?
Answer: 0.125 µg/mL

Question: And the MIC (Sph. varius 5262)?
Answer: 0.25 µg/mL

Question: And the MIC (Cl. tetani 19406)?
Answer: 0.25 µg/mL

Question: And the MIC (Strept. D 21777)?
Answer: 8 µg/mL

Question: And the MIC (Strept. D 26777)?
Answer: 8 µg/mL

Question: What about the MIC (Ent. cl. 2240 Cull.) of the same compound?
Answer: 2 µg/mL

Question: And the MIC (E. coli 2139E)?
Answer: 1 µg/mL

Question: What about the MIC (Kl. pneu. 1976E) of the same compound?
Answer: 1 µg/mL

Question: And the MIC (B. distasonis 1366; B. distasonis 1366, read-out: MIC)?
Answer: 0.25 µg/mL

Question: And the MIC (Citrob. 2901)?
Answer: 8 µg/mL

Question: What about the MIC (Ent. cl. M. 447) of the same compound?
Answer: 16 µg/mL

Question: How did the MIC (Staph. SG 511) turn out when `CO/N=C(\C(=O)N[C@@H]1C(=O)N2C(C(=O)O)=C(COC(C)=O)CS[C@H]12)c1csc(N)n1` [(2)] was run?
Answer: 2 µg/mL (≈ 4.39 µM)

Question: And the MIC (Staph. 285)?
Answer: 2 µg/mL (≈ 4.39 µM)

Question: What about the MIC (Staph. 503) of the same compound?
Answer: 2 µg/mL (≈ 4.39 µM)

Question: What about the MIC (Kl. aerog. 1082E) of the same compound?
Answer: 1 µg/mL (≈ 2.2 µM)

Question: What about the MIC (Citrob. 82 Cull.) of the same compound?
Answer: 2 µg/mL (≈ 4.39 µM)

Question: And the MIC (Staph. 789)?
Answer: 64 µg/mL (≈ 141 µM)

Question: What about the MIC (Staph. 22130) of the same compound?
Answer: 32 µg/mL (≈ 70.3 µM)

Question: What about the MIC (Strept. faecium D) of the same compound?
Answer: 64 µg/mL (≈ 141 µM)

Question: What about the MIC (Ent. cl. M 423) of the same compound?
Answer: 64 µg/mL (≈ 141 µM)

Question: What about the MIC (Ent. cl. P99) of the same compound?
Answer: 64 µg/mL (≈ 141 µM)

Question: And the MIC (B. fragilis 312)?
Answer: 128 µg/mL (≈ 281 µM)

Question: And the MIC (B. fragilis 960)?
Answer: 16 µg/mL (≈ 35.1 µM)

Question: And the MIC (B. fragilis 17390)?
Answer: 8 µg/mL (≈ 17.6 µM)

Question: What about the MIC (B. fragilis 18125) of the same compound?
Answer: 2 µg/mL (≈ 4.39 µM)

Question: And the MIC (B. ovatus 103)?
Answer: 64 µg/mL (≈ 141 µM)

Question: What about the MIC (B. vulgatus 1446) of the same compound?
Answer: 64 µg/mL (≈ 141 µM)

Question: What about the MIC (B. thetaiotaomicron 123) of the same compound?
Answer: 64 µg/mL (≈ 141 µM)

Question: And the MIC (Sph. varius 5262)?
Answer: 64 µg/mL (≈ 141 µM)

Question: What about the MIC (Cl. tetani 19406) of the same compound?
Answer: 8 µg/mL (≈ 17.6 µM)

Question: What about the MIC (Strept. D 21777) of the same compound?
Answer: 64 µg/mL (≈ 141 µM)

Question: What about the MIC (Strept. D 26777) of the same compound?
Answer: 64 µg/mL (≈ 141 µM)

Question: And the MIC (Ent. cl. 2240 Cull.)?
Answer: 0.062 µg/mL (≈ 0.136 µM)

Question: And the MIC (E. coli 2139E)?
Answer: 0.031 µg/mL (≈ 0.0681 µM)

Question: And the MIC (Kl. pneu. 1976E)?
Answer: 0.062 µg/mL (≈ 0.136 µM)

Question: What about the MIC (B. distasonis 1366; 1366) of the same compound?
Answer: 0.125 µg/mL (≈ 0.274 µM)

Question: What about the MIC (Citrob. 2901) of the same compound?
Answer: 64 µg/mL (≈ 141 µM)

Question: What about the MIC (Ent. cl. M. 447) of the same compound?
Answer: 64 µg/mL (≈ 141 µM)
